Legend:
[1] = test system: ornithine decarboxylase (ODC); details: qualitative; cited from earlier work
[2] = test system: ornithine decarboxylase (ODC); assay: Inhibition of TPA induction of ornithine decarboxylase (ODC) (Table 2); type: cell-based; details: concentration which results in 80 per cent inhibition of the ODC induction activity by TPA
Text: The retinoid-like activity of these compounds is confirmed through the classic measure of retinoic acid activity involving the effects of retinoic acid on ornithine decarboxylase. The original work on the correlation between retinoic acid and decrease in cell proliferation was done by Verma & Boutwell, Cancer Research, 1977, 37,2196-2201. That reference discloses that ornithine decarboxylase (ODC) activity increased precedent to polyamine biosynthesis. It has been established elsewhere that increases. in polyamine synthesis can be correlated or associated with cellular proliferation. Thus, if ODC activity could be inhibited, cell hyperproliferation could be modulated. […] IC80 is that concentration of the test compound (expresed in nanomolar (nmol)) which results in 80 per cent inhibition of the ODC induction activity by TPA.

| SMILES | IC80 [2] | also measured |
| --- | --- | --- |
| CCCCCCCCCCCCCC(=O)O[C@@H]1[C@@H](C)[C@@]2(O)[C@@H](C=C(CO)C[C@]3(O)C(=O)C(C)=C[C@@H]23)[C@@H]2C(C)(C)[C@]12OC(C)=O [12-0-tetradecanoylphorbol-13-acetate] |  | induction of ODC activity [1]: induces ODC activity |
| CCOC(=O)c1ccc(C#Cc2ccc3c(c2)C(C)(C)CC(=O)N3C(C)C)cc1 [Compound 5] | 6.4 nM |  |
| CCOC(=O)c1ccc(C#Cc2ccc3c(c2)C(C)(C)CC(OC(C)C)=N3)cc1 [Compound 6, Ethyl 4-[(4,4-dimethyl-2-isopropoxy-3,4-dihydro-6-quinolinyl)ethynyl]benzoate] | > 100 nM |  |
| CCOC(=O)c1ccc(C#Cc2ccc3c(c2)C(C)(C)CC(SC)=N3)cc1 [Compound 9, Ethyl 4-[(4,4-dimethyl-2-methylthio-3,4-dihydro-6-quinolinyl)ethynyl]benzoate] | 29 nM |  |
| CCCCCCCSC1=Nc2ccc(C#Cc3ccc(C(=O)OCC)cc3)cc2C(C)(C)C1 [Compound 10, Ethyl 4-[(4,4-dimethyl-2-heptylthio-3,4-dihydro-6-quinolinyl)ethynyl]benzoate] | > 60 nM |  |
| CC1=C(/C=C/C(C)=C/C=C/C(C)=C/C(=O)O)C(C)(C)CCC1 [Retinoic acid] |  | inhibition of TPA induction of ODC activity [1]: inhibits this induction of ODC activity by TPA |
| CCOC(=O)c1ccc(C#Cc2ccc3c(c2)C(C)(C)CC(=S)N3)cc1 [Compound 8, Ethyl 4-[(4,4-dimethyl-2-thio-1,2,3,4-tetrahydro-6quinolinyl)ethynyl]benzoate] | 54 nM |  |
| CCOC(=O)c1ccc(C#Cc2ccc3c(c2)C(C)(C)CC(=S)N3C(C)C)cc1 [Compound 7, Ethyl 4-[(4,4-dimethyl-2-thio-1,2,3,4-tetrahydro-1-iso-propyl-6-quinolinyl)ethynyl]benzoate] | 5.5 nM |  |

From US5616712A, “Acetylenes disubstituted with a phenyl or heteroaryl group and a 2-thio-1,2,3,4-tetrahdroquinolinyl, 2-alkylthio-3,4-dihydroquinolinyl or 2-alkoxy-3,4-dihydroquinolinyl group having retinoid-like biological activity” (Allergan, priority 1995, dated 1997)
